Columns and labels:
[1] = Injection site reactions in cattle; assay type: in vivo; conditions: injectable pharmaceutical compositions
Experimental: Cattle injected with injectable pharmaceutical compositions containing Compound (A) were evaluated for reactions at the injection site. These injection site reactions were compared to the injection site reactions of cattle injected with injectable pharmaceutical compositions containing Compounds (B) and (C). The compounds were formulated as aqueous solution injectable pharmaceutical compositions or as suspension injectable pharmaceutical compositions as indicated below. These formulations were prepared as described in Examples 1 and 2. Compound (A) was formulated as both an aqueous solution using the free base form of the compound and as a suspense using the dihydrochloride salt of the compound. The composition of the aqueous solution injectable pharmaceutical composition was 15% w/v of Compound A, 15% w/v Poloxamer […], 6% w/v Benzyl Alcohol, 7% w/v Citric Acid, and QS Water. The composition of the suspension injectable pharmaceutical composition was 15% w/v Compound A (17.5% w/v HCl salt of Compound A), 0.1% w/v Kolliphor HS 15 and QS Miglyol 812. Compound A was administered to the animals in a dose of 10 mg/kilogram of body weight. Compound (B) was formulated as both an aqueous solution using the free base form of the compound and as a suspense using the dihydrochloride salt of the compound. The composition of the aqueous solution injectable pharmaceutical composition was 15% w/v of Compound B, 15% w/v Poloxamer […], 6% w/v Benzyl Alcohol, 7% w/v Citric Acid, and QS Water. The composition of the suspension injectable pharmaceutical composition was 15% w/v Compound B (17.5% w/v HCl salt of Compound B), 0.1% w/v Kolliphor HS 15 and QS Miglyol 812. Compound A was administered to the animals in a dose of 10 mg/kilogram of body weight. Compound (C) was formulated as both an aqueous solution using the free base form of the compound. The composition of the aqueous solution injectable pharmaceutical composition was 10% w/v of Compound C, 15% w/v Poloxamer […], 6% w/v Benzyl Alcohol, 7% w/v Citric Acid, and QS Water. Compound A was administered to the animals in a dose of 10 mg/kilogram of body weight. Injection sites were examined clinically by a trained person, Size of the swelling is measured with a ruler to the closest 0.5 cm horizontally, vertical and depth. These three measured values were multiplied to an estimation of the volume of the square box surrounding the observed swelling.

[2] = system: microbes that cause respiratory disease in animals; assay: Activity against the microbes that cause respiratory disease in animals (statement); assay type: cell-based

Structure (SMILES) | Injection site reactions, overall assessment [1] | Injection site reactions, overall assessment ([1]; listed as Compound (B)) | Activity against the microbes that cause respiratory disease in animals [2] | Injection site reactions, overall assessment ([1]; listed as Compound (C))
CC(C)(N)[C@H](NC(=O)c1ccc(C#Cc2ccc(CNC3CC3)cc2)cc1)C(=O)NO [Compound B] | not resolved during the duration of the study | unacceptable injection site reactions | active against the microbes that cause respiratory disease in animals | –
CC(C)(N)[C@H](NC(=O)c1ccc(C#Cc2ccc(CNCC(F)(F)F)cc2)cc1)C(=O)NO [Compound C] | not resolved during the duration of the study | – | active against the microbes that cause respiratory disease in animals | unacceptable injection site reactions

Source: patent publication US20250057790A1, “AN INJECTABLE PHARMACEUTICAL COMPOSITION FOR THE TREATMENT OF RESPIRATORY DISEASES IN ANIMALS” (priority 2021, published 2025)
